Paper PMC6277198, “Molecular basis for activation of lecithin:cholesterol acyltransferase by a compound that increases HDL cholesterol” (eLife, 2018)
Changes are numbered by the printed parent chain.

How the values were obtained:
[1] = system: LCAT Y51S, G71I, and Y51S/G71I variants; assay: Differential scanning fluorimetry; assay type: binding, human
Protocol: (§1) Tm values were determined using an Applied Biosystems QuantStudio 7 Flex qPCR machine with two replicates performed at least in triplicate. LCAT at 0.05 mg mL^−1 was diluted into reaction buffer containing 5X Sypro Orange in a final volume of 10 μL in 384-well PCR plates. DMSO or compound 1 was added so that all reactions contained 3% DMSO. The reactions were run from 25–95 °C with a ramp rate of 0.03 °C s^−1. Tm values were determined as the derivative using Protein Thermal Shift software. Significance was determined using a one-way analysis of variance followed by Tukey’s multiple comparisons post-test in GraphPad Prism.

LCAT R244H = target: T1, LCAT R244H (Homo sapiens, UniProt P04180, R268H); assay: Differential scanning fluorimetry; assay type: binding; conditions: addition of compound 1
T1 construct: hydrolysis of 4-methylumbelliferyl palmitate (MUP) by full-length LCAT; made in house; host or cells: HEK293F (transient transfection, secreted)
T1 sequence (P04180 25-440 R268H): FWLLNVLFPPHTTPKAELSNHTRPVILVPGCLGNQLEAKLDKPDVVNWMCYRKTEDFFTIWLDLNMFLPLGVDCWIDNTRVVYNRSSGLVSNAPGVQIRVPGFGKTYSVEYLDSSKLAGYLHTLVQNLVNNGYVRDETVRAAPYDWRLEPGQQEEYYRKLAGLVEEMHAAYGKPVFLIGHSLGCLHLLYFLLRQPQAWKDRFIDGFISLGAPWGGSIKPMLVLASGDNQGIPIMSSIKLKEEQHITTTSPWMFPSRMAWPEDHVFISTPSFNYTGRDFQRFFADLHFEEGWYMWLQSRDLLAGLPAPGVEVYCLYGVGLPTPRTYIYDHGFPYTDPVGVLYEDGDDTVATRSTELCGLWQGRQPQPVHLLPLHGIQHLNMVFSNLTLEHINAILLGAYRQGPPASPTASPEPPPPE
Protocol: as §1

WT LCAT = target: T2, WT LCAT (Homo sapiens, UniProt P04180); assay: DHE acyltransferase assay with peptide-based HDLs; assay type: biochemical; set-up: hydrolysis of 4-methylumbelliferyl palmitate (MUP) by full-length LCAT; made in house; host or cells: HEK293F (transient transfection, secreted)
T2 sequence (P04180 25-440): T1 sequence (P04180 25-440 R268H) with H244R
Protocol: Peptide-based HDLs were used in this assay as there is no difference between peptide HDLs and ApoA-I HDLs in both HDL binding and acyltransferase assays ([Manthei et al., 2017]). The peptide HDLs were made using the ESP24218 peptide with the sequence […] ([Dassuex et al., 1999]; [Li et al., 2015]) with a DPPC:POPC:DHE ratio of 47:47:6 as previously described ([Manthei et al., 2017]). The assay was performed in 384-well low volume black microplates (Corning 4514) with a total assay volume of 16 μL. In each reaction, LCAT was diluted in assay buffer to 15 μg mL^−1 in the presence of either 1% DMSO or 10 μM 2 with 1% DMSO. Compound 2 was used in this assay because it has lower background fluorescence than 1. The DHE HDLs were diluted in 1X PBS with 1 mM EDTA and 5 mM β-mercaptoethanol. 8 μL of the HDLs were added to the plate, and the reactions were initiated with 8 μL of LCAT, so that LCAT was assayed at 7.5 μg mL^−1 with and without 5 μM compound with a range of DHE concentrations from 0 to 50 μM. The reactions were stopped after 25 min at 37 °C with the addition of 4 μL of stop solution (1X PBS with 1 mM EDTA, 5 U mL^−1 cholesterol oxidase (COx), and 7% Triton X100). Following the addition of stop solution, the plates were incubated for another 60 min at 37 °C to allow for the COx to react. After the plates were re-equilibrated at room temperature, fluorescence was determined on a SpectraMax plate reader with excitation at 325 nm and emission at 425 nm, with a 420 nm cutoff. Reactions without LCAT were used for background subtraction, and reactions without LCAT and stop solution lacking COx were used to generate a standard curve for DHE. Reactions were performed in triplicate with three independent experiments per LCAT variant. Data were processed via background subtraction to remove excess fluorescence that results from the higher concentrations of DHE. […] Outliers were removed using automatic outlier elimination within Prism. For statistical analysis, the Vmax for each variant was compared to WT using a one-way analysis of variance followed by Tukey’s multiple comparisons post-test in GraphPad Prism.
To determine EC50 values, compound 2 was titrated from 0.004 to 10 μM, and the DHE concentration was set at 50 μM. LCAT was diluted in assay buffer and compound 2 dilutions were made with assay buffer containing 5.3% DMSO. 1.5 μL compound was added, then 6.5 μL LCAT, followed by 8 μL DHE. Dilutions were adjusted so that LCAT was assayed at 7.5 μg mL^−1, as above. All values were background subtracted to buffer with the same concentration of compound 2. A standard curve was included in one experiment with DHE from 0 to 50 μM in order to adjust the final fluorescence values to a rate by dividing by the slope of the line and time (25 min), as above. […]

SMILES | Increase of Tm compared to WT (DSF) [1] | ∆Tm (LCAT R244H) | Fold activation, DHE acyltransferase activity (WT LCAT; WT LCAT, peptide-based HDLs) [fold] | acyltransferase rate (WT LCAT; WT LCAT, lowest concentration of compound 2 examined) [µM/h] | EC50 (WT LCAT; WT, compound 2 titrated from 0.004 to 10 μM, DHE 50 μM) [µM] | Vmax, DHE assay (WT LCAT; with 5 μM compound 2 (22 without)) [μM DHE-ester hr^−1]
N#Cc1cnc(N2CCC(c3n[nH]c4c3C(O)(C(F)(F)F)CC(=O)N4)CC2)cc1C(F)(F)F (stereo not drawn) [compound 1, 6-(4-(4-Hydroxy-6-oxo-4-(trifluoromethyl)−4,5,6,7-tetrahydro-1H-pyrazolo[3,4-b]pyridin-3-yl)piperidin-1-yl)−4-(trifluoromethyl)nicotinonitrile] | far less effective | 4.8 ˚C | – | – | – | –
O=C1CC(O)(C(F)(F)F)c2c(C3CCN(c4cnc(C(F)(F)F)cn4)CC3)n[nH]c2N1 (stereo not drawn) [compound 2, 4-Hydroxy-4-(trifluoromethyl)−3-(1-(5-(trifluoromethyl)pyrazin-2-yl)piperidin-4-yl)−4,5-dihydro-1H-pyrazolo[3,4-b]pyridin-6(7H)-one] | – | – | 2.8 | 11 | 0.28 ± 0.09 | 37
